The values that follow are results of earlier work, collected in patent US20230148652A1, “ORAL PRODUCTS WITH NICOTINE-POLYMER COMPLEX” (NICOVENTURES TRADING LIMITED, priority 2021, published 2023).

The conditions of series [1]: partition between octanol and water.

Turning to isopropyl benzoic acid, the lipophilicity (logP) in series [1] is reported as 3.5.

In the case of ethyl benzoic acid, the logP in series [1] is listed as 2.9. Turning to `CC(C)[C@@H]1CC[C@@H](C)C[C@H]1OC(=O)CCC(=O)O` [monomenthyl succinate], in series [1], the logP is reported as 3. As for `COC(=O)/C=C/C(C)=C\C=C\C(C)=C\C=C\C=C(C)\C=C\C=C(C)\C=C\C(=O)O` [bixin, (2E,4E,6E,8E,10E,12E,14E,16Z,18E)-20-methoxy-4,8,13,17-tetramethyl-20-oxoicosa-2,4,6,8,10,12,14,16,18-nonaenoic acid], the solubility entry is “soluble in fats and alcohols but insoluble in water”. For the same compound, the chemical stability entry (when isolated) was “chemically unstable when isolated”. `CC(/C=C/C=C(C)/C=C/C(=O)O)=C\C=C\C=C(C)\C=C\C=C(C)\C=C\C(=O)O` (stereo in doubt) [norbixin, (2E,4E,6E,8E,10E,12E,14E,16E,18E)-4,8,13,17-tetramethylicosa-2,4,6,8,10,12,14,16,18-nonaenedioic acid]: the solubility entry was “water soluble”.
